pKd: −log10 of the molar value.
Legend:
PIM3-GFP = PIM3-GFP (Homo sapiens, UniProt Q86V86); test: FLECS elution of PIM3-GFP from γ-linked ATP Sepharose media; format: binding; conditions: titration from ATP Sepharose; calculated from EC50; read-out: apparent Kd, elution of PIM3-GFP
GFP-ZIPK = GFP-ZIPK (Homo sapiens, UniProt O43293); test: FLECS elution of GFP-ZIPK from γ-linked ATP Sepharose media; format: binding; conditions: titration from ATP Sepharose
Chain of GFP-ZIPK (O43293 whole entry): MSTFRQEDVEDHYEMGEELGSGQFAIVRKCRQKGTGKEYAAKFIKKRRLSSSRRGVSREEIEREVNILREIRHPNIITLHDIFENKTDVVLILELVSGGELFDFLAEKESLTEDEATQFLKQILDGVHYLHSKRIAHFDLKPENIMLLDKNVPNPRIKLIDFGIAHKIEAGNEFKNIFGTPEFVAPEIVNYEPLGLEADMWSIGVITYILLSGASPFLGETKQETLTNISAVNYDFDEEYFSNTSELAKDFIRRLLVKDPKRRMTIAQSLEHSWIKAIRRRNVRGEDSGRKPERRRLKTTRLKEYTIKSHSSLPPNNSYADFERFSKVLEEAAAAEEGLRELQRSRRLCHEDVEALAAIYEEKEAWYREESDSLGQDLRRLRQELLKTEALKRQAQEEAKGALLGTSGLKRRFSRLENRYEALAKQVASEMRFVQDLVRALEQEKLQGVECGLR

For O=S(=O)(c1cccc2c(I)cccc12)N1CCCNCC1 [ML-7, reference compound], the pKd (PIM3-GFP) was 6.70 and the “elution of full length GFP-ZIPK” value (GFP-ZIPK) was “failed to elute”.

From patent US11999737B2, “Kinase inhibitors and related methods of use” (Duke University, priority 2014, dated 2024)
